US12035717B1, “2-OXO-2-({2-[(phenylcarbamoyl)oxy]ethyl} amino)ethyl phenylcarbamate as an eco-friendly insecticidal agent against spodoptera littoralis (boisd.)” (priority 2024, dated 2024)
In brackets after ≈: the same amount, converted by molar mass.

System: Spodoptera littoralis larvae (laboratory strain of cotton leafworm)
Experiment: Insecticidal leaf dip bioassay on S. littoralis larvae
Conditions: for LC50: after 72 hours of treatment, castor leaf dip; for Toxicity index % / Toxicity ratio: 72 hours; for Toxicity index %: fenoxycarb = 100; for Toxicity ratio: fenoxycarb's LC50/compound's LC50 * 100
[1] = Spodoptera littoralis, in Gossypium hirsutum, foliar, 72 h, 2nd instar larvae
[2] = Spodoptera littoralis, in Gossypium hirsutum, foliar, 72 h, 4th instar larvae

Protocol: Five concentrations (200, 100, 50, 25, 12.5 ppm) were designed for this synthetic compound and the reference fenoxycarb's compound as the dynamic ingredients based on ppm via diluting the commercial formulation.
In this experiment, the synthetic compound was tested for its insecticidal bioactivity using the industry-standard leaf dip bioassay techniques. […] Until usage, the stocks were kept in a refrigerator. The target substance test results were noted & the concentrations needed to destroy 50% (LC50) of S. littoralis larvae were calculated. The target compound was employed in five different concentrations, & 0.1% Tween 80 was employed as a surfactant. Castor bean leaf discs (nine centimeters in diameter) were dipped in the concentration under test for ten seconds, then fed to 2th & 4th larvae, which were roughly the same size and housed in glass jars (five pound). Each action carried out 3 times with ten larvae each. The mortality equalized via Abbott's formula. Calculations of mortality setback line were measurably rummage via probity analysis. Harmfulness index was strongminded via sun equations. The mortality results of larval insect were estimated through employing probit analysis through a statistics (LDP-line) equation which estimate the LC50 values with 95% fiducially limits of lower, upper confidence limit and slope.

Row | SMILES | LC50 (2nd instar larvae) | Toxicity index % (2nd instar larvae) [%] | Toxicity ratio (4th instar larvae) | LC50 [1] [µg/mL] | LC50 [2] [µg/mL] | LC50 (4th instar larvae) [µg/mL] | Activity against Spodoptera littoralis (in words) (summary of Table 1 data)
1 | O=C(COC(=O)Nc1ccccc1)NCCOC(=O)Nc1ccccc1 [2-oxo-2-({2-[(phenylcarbamoyl)oxy]ethyl}amino)ethyl phenylca] [2-oxo-2-({2-[(phenylcarbamoyl)oxy]ethyl}amino)ethyl phenylcarbamate] | about 14.80 mg/L | – | – | – | – | – | –
2 | CCOC(=O)NCCOc1ccc(Oc2ccccc2)cc1 [Fenoxycarb, reference compound] | – | 100 | 100 | 5.94 (≈ 19.7 µM) | 59.9 (≈ 199 µM) | – | –
3 | O=C(COC(=O)Nc1ccccc1)NCCOC(=O)Nc1ccccc1 [2-oxo-2-({2-[(phenylcarbamoyl)oxy]ethyl}amino)ethyl phenylcarbamate] | – | – | – | – | ~81 (≈ 227 µM) | – | –
4 | O=C(COC(=O)Nc1ccccc1)NCCOC(=O)Nc1ccccc1 [Compound 2, 2-oxo-2-({2-[(phenylcarbamoyl)oxy]ethyl}amino)ethyl phenylcarbamate] | – | 40.13 | 73.98 | 14.8 (≈ 41.4 µM) | – | 80.98 (≈ 227 µM) | active against Spodoptera littoralis
